# Values quoted from earlier work in patent US20240325349A1, “LIQUID PHARMACEUTICAL FORMULATIONS OF TOPIRAMATE” (TaP Pharmaceuticals AG, priority 2023, published 2024).
# Read-outs that look alike come from different tables or passages of the source.
smiles,measurement,setting,value
"CC1(C)O[C@@H]2[C@@H](CO[C@@]3(COS(N)(=O)=O)OC(C)(C)O[C@@H]23)O1 [Topiramate, 2,3:4,5-Di-O-isopropylidene-β-D-fructopyranose sulfamate]",Topiramate Solubility,in Aconon C-30 (oil),50.7 ± 3.5 mg/mL
same,Topiramate Solubility,in Capmul MCM C-8 (oil),62.5 ± 3.9 mg/mL
same,Topiramate Solubility,in Capmul MCM EP (oil),61.4 ± 3.8 mg/mL
same,Topiramate Solubility,in Captex 355 (oil),14.5 ± 0.8 mg/mL
same,Topiramate Solubility,in Carbitol (cosurfactant),355.6 ± 29.2 mg/mL
same,Topiramate Solubility,in Cremophor EL (surfactant),78 ± 2.1 mg/mL
same,Topiramate Solubility,in Cremophor RH-40 (surfactant),46 ± 2.7 mg/mL
same,Topiramate Solubility,in Ethyl Oleate (oil),6.7 ± 0.3 mg/mL
same,Topiramate Solubility,in IPM (oil),6.7 ± 0.4 mg/mL
same,Topiramate Solubility,in Oleic Acid (oil),0.1 ± 0.1 mg/mL
same,Topiramate Solubility,in PEG 200 (cosurfactant),169.6 ± 2.3 mg/mL
same,Topiramate Solubility,in PEG 400 (cosurfactant),148.9 ± 3.5 mg/mL
same,Topiramate Solubility,in Sesfol 218 (oil),53.6 ± 2.6 mg/mL
same,Topiramate Solubility,in Tween 20 (surfactant),142.8 ± 6.4 mg/mL
same,Topiramate Solubility,in Tween 80 (surfactant),84.2 ± 3^ mg/mL
